Reference: PubChem BioAssay (NCI)
Values joined by “and” are separate entries in the source; they are usually repeats but may differ in a detail not shown here. Equal values may be shown once.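 A five-concentration, 48-hour dose response in 96-well plates underlies each endpoint, interpolated linearly between surrounding concentrations. The concentration for 50% growth inhibition is given as GI50. TGI: concentration producing complete growth inhibition.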

Key:
Assay in all cases: inhibition of tumour cell growth, NCI panel, 48 h
[1] = tested on: HOP-92 NSCLC
[2] = tested on: SNB-75 CNS
[3] = tested on: HOP-62 NSCLC
[4] = tested on: HCC-2998 colon
[5] = tested on: M14 melanoma
[6] = tested on: KM12 colon
[7] = tested on: CCRF-CEM leukemia
[8] = tested on: HCT-116 colon
[9] = tested on: SW-620 colon
[10] = tested on: MCF7 breast

SMILES	TGI [1]	TGI [2]	TGI [3]	TGI [4]	TGI [5]	TGI [6]	TGI [7]	TGI [8]	TGI [9]	GI50 [1]	GI50 [2]	GI50 [10]	TGI [10]	GI50 [3]	GI50 [5]	GI50 [6]	GI50 [7]	GI50 [8]	GI50 [9]	GI50 [4]
Cc1ccc(/C=N/NS(=O)(=O)c2ccccc2)cc1C	> 100 µM	> 100 µM	> 100 µM	> 100 µM	> 100 µM	> 100 µM	> 100 µM	> 100 µM	> 100 µM	–	–	–	–	–	–	–	–	–	–	–
CC[C@H]1CCC/C=C/[C@@H]2C[C@H](O)C[C@H]2[C@H](O)/C=C/C(=O)O1	> 100 µM	> 100 µM	–	–	> 100 µM	0.0523 µM	> 100 µM	0.119 µM	0.517 µM	0.157 µM	< 0.0119 µM	0.0266 µM	0.102 µM	0.0809 µM	0.0376 µM	0.0227 µM	0.0455 µM	0.0328 µM	0.0313 µM	–
CCOC(=O)CNC(=O)OCc1ccccc1	> 100 µM	> 100 µM	> 100 µM	> 100 µM	> 100 µM	> 100 µM	> 100 µM	> 100 µM	> 100 µM	–	–	–	–	–	–	–	–	–	–	–
CCN(CC)CCCNc1n[n+]([O-])c2ccccc2[n+]1[O-]	> 100 µM	77.1 µM	–	15.7 µM	> 100 µM	63 µM	> 100 µM	57.3 µM	> 100 µM	–	–	–	42.4 µM	–	–	–	–	–	–	–
O=C1NC2(CCCC2)C2CCCCC12O (stereo not given)	> 100 µM	> 100 µM	> 100 µM	–	> 100 µM	> 100 µM	> 100 µM	> 100 µM	> 100 µM	–	–	–	–	–	–	–	–	–	–	–
COc1ccc2c(c1)C(=O)c1c-2c(N2CCN(C(=O)CCNCCNCCN)CC2)nc2ccccc12	10.6 µM	51.6 µM	7.51 µM	–	3.83 µM	62.2 µM	7.93 µM	3.7 µM	3.65 µM	2.44 µM	27.8 µM	5.11 µM	21.6 µM	2.93 µM	2.03 µM	4.94 µM	2.85 µM	1.85 µM	1.86 µM	–
C[C@]12CCc3nonc3C1CC[C@@H]1C2CC[C@@]2(C)C1CC[C@@H]2O (stereo not given in full)	> 100 µM	> 100 µM	> 100 µM	> 100 µM	> 100 µM	> 100 µM	> 100 µM	–	> 100 µM	–	–	–	–	–	–	–	–	–	–	–
COc1ccc(-c2cc(=O)c3cc(C)c(C)c(C(=O)O)c3o2)cc1	–	> 100 µM	> 100 µM	> 100 µM	–	> 100 µM	> 100 µM	> 100 µM	> 100 µM	–	–	–	–	–	–	–	–	–	–	–
CN(C)CCN(C)C(=O)c1cccc2cccc(C(=O)O)c12	> 100 µM	> 100 µM	> 100 µM	> 100 µM	> 100 µM	–	> 100 µM	> 100 µM	> 100 µM	–	–	–	–	–	–	–	–	–	–	–
COc1ccc([Se][Se]c2ccc(OC)cc2OC)c(OC)c1	4.46 µM	3.11 µM	–	> 100 µM	9.3 µM	14.6 µM	5.29 µM	10.5 µM	7.04 µM	–	–	–	–	–	–	–	–	–	–	–
N#CC(C(=O)CCC(=O)Nc1cccc(C(F)(F)F)c1)c1ccccc1 (stereo not given)	> 100 µM	> 100 µM	> 100 µM	> 100 µM	> 100 µM	> 100 µM	> 100 µM	> 100 µM	> 100 µM	–	–	–	–	–	–	–	–	–	–	–
COc1cc2c(c(OC)c1OC)-c1c(c3ccc([N+](=O)[O-])cc3c(=O)n1CCCBr)C2=O	–	> 100 µM	54.3 µM	> 100 µM	59.1 µM	> 100 µM	> 100 µM	> 100 µM	> 100 µM	–	80 µM	0.0551 µM	0.439 µM	15.8 µM	21 µM	60.7 µM	14.8 µM	18.7 µM	18.2 µM	50.4 µM
COc1cc(/C=C2\NC(=O)C3Cc4c(OC)c(C)c(OC)c(OC)c4C2N3C)c(OC)c(C)c1OC (stereo not given)	> 100 µM	> 100 µM	> 100 µM	> 100 µM	> 100 µM	> 100 µM	> 100 µM	> 100 µM	–	–	–	–	–	–	–	–	–	–	–	–
Cc1[nH]c2ccccc2c1C1=NO/C(=N\O)C(c2c(C)[nH]c3ccccc23)C1 (stereo not given)	> 78.5 µM	> 100 µM	64.6 µM	> 100 µM	> 89.6 µM	> 100 µM	> 100 µM	> 78.5 µM	> 100 µM	–	–	–	–	–	–	–	–	–	–	–
O=S1(=O)c2cc(S(=O)(=O)n3ccnc3)ccc2NC2=NCCCN21	> 100 µM	88.1 µM	63.6 µM	55.3 µM	> 100 µM	89.5 µM	73.3 µM	85.8 µM	73.8 µM	–	–	–	–	–	–	–	–	–	–	–
C#CCOC(=O)/C=C/C(=O)Oc1ccc2c(C)cc(=O)oc2c1	–	> 100 µM	> 100 µM	> 100 µM	> 100 µM	> 100 µM	> 100 µM	> 100 µM	> 100 µM	–	> 100 µM	> 100 µM	> 100 µM	> 100 µM	> 100 µM	> 100 µM	> 100 µM	> 100 µM	> 100 µM	40.8 µM
CC(=O)NCc1c(C(N)=O)ncn1Cc1ccccc1	> 100 µM	> 100 µM	> 100 µM	> 100 µM	> 100 µM	–	> 100 µM	> 100 µM	> 100 µM	–	–	–	–	–	–	–	–	–	–	–
COc1ccc(-c2oc3c(OC)c(OC)c(OC)c(O)c3c(=O)c2OC)cc1O	–	< 0.01 µM	0.877 µM and 4.75 µM	8.64 µM	–	10.3 µM	11.4 µM	–	> 100 µM	–	< 0.01 µM	–	–	0.0478 µM	< 0.01 µM	0.638 µM	–	–	< 0.01 µM	–
O=S(=O)(O)n1ccnc1 (tested in a mixture with another compound)	> 100 µM	> 100 µM	> 100 µM	–	> 100 µM	> 100 µM	–	> 100 µM	> 100 µM	–	–	–	> 100 µM	–	–	–	–	–	–	–
N#CC1(N2CCCC2)CCC2(CC1)OCCO2	> 100 µM	> 100 µM	> 100 µM	> 100 µM	> 100 µM	> 100 µM	> 100 µM	> 100 µM	> 100 µM	–	–	–	–	–	–	–	–	–	–	–
CO/C=C(\Br)c1ccc2c(c1)OCO2	> 100 µM	> 100 µM	> 100 µM	–	> 100 µM	> 100 µM	> 100 µM	> 100 µM	> 100 µM	–	–	–	–	–	–	–	–	–	–	–
COc1ccccc1NC(=O)C1=C(C)NC(C)=C(C(=O)Nc2ccccc2OC)C1c1ccccc1Cl	> 100 µM	> 100 µM	> 100 µM	> 100 µM	> 100 µM	> 100 µM	> 100 µM	> 100 µM	> 100 µM	–	–	–	–	–	–	–	–	–	–	–
